# Results reported in patent US9750733B2, “Compounds for preventing and/or treating lysosomal storage disorders and/or degenerative disorders of the central nervous system” (Amicus Therapeutics, Inc., priority 2012, dated 2017).
# Structures can show the parent of a compound that is named as a salt.
# Tests used:
# [1] = Dynamic vapor sorption (DVS) hygroscopicity analysis; assay type: physicochemical; conditions: for Hygroscopicity (% water uptake up to 45% relative humidity): DVS, 25° C., 60 minutes hold per 10% step in relative humidity, weight increase as percentage of material weight
# Protocol: Differences in hygroscopicity (moisture uptake) of the various forms of a solid material provide a measure of their relative stability at increasing relative humidity. Dynamic vapor sorption (DVS) analysis was performed for (3R,4R,5S)-5-(difluoromethyl)piperidine-3,4-diol, (3R,4R,5S)-5-(difluoromethyl)piperidine-3,4-diol fumarate Form A, (3R,4R,5S)-5-(difluoromethyl)piperidine-3,4-diol fumarate Form 1B and (3R,4R,5S)-5-(difluoromethyl)piperidine-3,4-diol tosylate. Moisture sorption isotherms for samples of each salt and the free base were obtained using a DVS-1 system from Surface Measurement Systems (London, UK). The relative humidity was cycled from 45% to 95% (sorption), back to 0% (desorption) and back to 45% (sorption) at a constant temperature of 25° C. with a hold time of 60 minutes per each 10% step in relative humidity. The increase in weight due to moisture uptake was measured as a percentage of the weight of the material.
# β-glucocerebrosidase = biological target: T1, β-glucocerebrosidase (Homo sapiens, UniProt P04062); conditions: as described in US 2011/0091442 and 2011/0092541; cited from earlier work
# T1 sequence (P04062 40-536): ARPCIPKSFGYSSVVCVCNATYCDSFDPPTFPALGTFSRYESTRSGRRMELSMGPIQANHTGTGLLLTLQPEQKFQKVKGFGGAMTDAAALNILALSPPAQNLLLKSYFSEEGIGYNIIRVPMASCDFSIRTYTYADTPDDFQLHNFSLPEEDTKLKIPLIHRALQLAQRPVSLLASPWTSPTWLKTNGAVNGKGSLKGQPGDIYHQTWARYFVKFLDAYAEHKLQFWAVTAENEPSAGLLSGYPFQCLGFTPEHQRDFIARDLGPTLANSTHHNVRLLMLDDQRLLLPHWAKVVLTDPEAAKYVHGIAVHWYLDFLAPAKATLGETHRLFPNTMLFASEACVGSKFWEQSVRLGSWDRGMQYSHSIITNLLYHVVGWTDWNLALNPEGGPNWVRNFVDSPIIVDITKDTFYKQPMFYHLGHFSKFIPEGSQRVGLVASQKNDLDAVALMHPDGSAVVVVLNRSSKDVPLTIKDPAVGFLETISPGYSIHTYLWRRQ
# [2] = Physical stability under stress and ambient conditions; assay type: physicochemical
# Source text: (§1) The hydrochloride and fumarate Forms B, B2 and B3 salts of (3R,4R,5S)-5-(difluoromethyl)piperidine-3,4-diol were also found to be hygroscopic.
# [3] = Separate dynamic vapor sorption test (hydrochloride salt); assay type: physicochemical
# Source text: as §1
structure (smiles),measurement,setting,value
"O[C@H]1[C@H](O)CNC[C@@H]1C(F)F [Free Base, (3R,4R,5S)-5-(difluoromethyl)piperidine-3,4-diol]",Hygroscopicity (% water uptake up to 45% relative humidity),[1],9.3%
same,Inhibition of β-glucocerebrosidase (in words),β-glucocerebrosidase,potent and selective inhibitors
"O=C(O)/C=C/C(=O)O.O[C@H]1[C@H](O)CNC[C@@H]1C(F)F [Fumarate Form 1B, (3R,4R,5S)-5-(difluoromethyl) piperidine-3,4-diol fumarate Form 1B]",Hygroscopicity (% water uptake up to 45% relative humidity),[1],0.497%
same,Hygroscopicity of the salt relative to the free base (fold lower than free base),[1]; comparison of the Table 6 DVS values,roughly 20 fold
"O[C@H]1[C@H](O)CNC[C@@H]1C(F)F [Fumarate Form A, (3R,4R,5S)-5-(difluoromethyl)piperidine-3,4-diol fumarate Form A]",Hygroscopicity (% water uptake up to 45% relative humidity),[1],0.09%
same,Physical state after one day at 40° C. and 75% relative humidity,[2],physically stable
same,Physical stability in slurries,[2]; slurries at 10° C. and 30° C. in a variety of organic solvents,physically stable
same,Physical stability on wet grinding,[2]; wet grinding for 60 minutes at 30 Hz,physically stable
"Cc1ccc(S(=O)(=O)O)cc1.O[C@H]1[C@H](O)CNC[C@@H]1C(F)F [Tosylate, (3R,4R,5S)-5-(difluoromethyl)piperidine-3,4-diol tosylate]",Hygroscopicity (% water uptake up to 45% relative humidity),[1],0.08%
"O=C(O)/C=C/C(=O)O.O[C@H]1[C@H](O)CNC[C@@H]1C(F)F [fumarate Form B3, (3R,4R,5S)-5-(difluoromethyl) piperidine-3,4-diol fumarate Form B3]",Stability at ambient conditions,[2]; at least one day at ambient conditions (room temperature),remained stable
"O=C(O)/C=C/C(=O)O.O[C@H]1[C@H](O)CNC[C@@H]1C(F)F [fumarate Form B, (3R,4R,5S)-5-(difluoromethyl) piperidine-3,4-diol fumarate Forms B, B2 and B3]",Hygroscopicity (in words),[2],hygroscopic
same,Physical state after one day at 40° C. and 75% relative humidity,[2],became deliquescent
"Cl.O[C@H]1[C@H](O)CNC[C@@H]1C(F)F [hydrochloride, (3R,4R,5S)-5-(difluoromethyl)piperidine-3,4-diol hydrochloride]",Hygroscopicity (in words),[2],hygroscopic
same,Relative humidity after which the salt became deliquescent,[3],> 60 % relative humidity
same,Inhibition of β-glucocerebrosidase (in words),β-glucocerebrosidase,potent and selective inhibitors
